From patent publication US20210047291A1, “PESTICIDALLY ACTIVE HETEROCYCLIC DERIVATIVES WITH SULFUR CONTAINING SUBSTITUENTS” (SYNGENTA PARTICIPATIONS AG, priority 2018, published 2021)
Read-outs that look alike come from different tables or passages of the source.

Tests used:
Format in all cases: in vivo
[1] = tested on: Diabrotica Balteata (Corn Root Worm); test: Example B2: Diabrotica balteata, maize sprouts, L2 larvae; conditions: Diabrotica balteata, 96 h, application rate of 200 ppm; L2 larvae; 4 days after infestation; read-out: effect in at least one of the two categories (mortality or growth inhibition)
Method: Maize sprouts placed onto an agar layer in 24-well microtiter plates were treated with aqueous test solutions prepared from 10,000 ppm DMSO stock solutions by spraying. After drying, the plates were infested with L2 larvae (6 to 10 per well). The samples were assessed for mortality and growth inhibition in comparison to untreated samples 4 days after infestation.

[2] = tested on: Euschistus heros (Neotropical Brown Stink Bug); test: Example B3: Euschistus heros, soybean leaves, N2 nymphs; conditions: for percent effect (mortality or growth inhibition) at 200 ppm: 120 h, read-out: effect in at least one of the two categories (mortality or growth inhibition)
Method: Soybean leaves on agar in 24-well microtiter plates were sprayed with aqueous test solutions prepared from 10,000 ppm DMSO stock solutions. After drying the leaves were infested with N2 nymphs. The samples were assessed for mortality and growth inhibition in comparison to untreated samples 5 days after infestation.

[3] = tested on: Plutella xylostella (Diamond Back Moth); test: Example B7: Plutella xylostella, artificial diet, L2 larvae; conditions: 120 h, read-out: effect in at least one of the two categories (mortality or growth inhibition); for percent effect (mortality or growth inhibition) at 200 ppm: application rate of 200 ppm, L2 larvae, 5 days after infestation
Method: 24-well microtiter plates with artificial diet were treated with aqueous test solutions prepared from 10,000 ppm DMSO stock solutions by pipetting. After drying, the plates were infested with L2 larvae (10 to 15 per well). The samples were assessed for mortality and growth inhibition in comparison to untreated samples 5 days after infestation.

[4] = tested on: Spodoptera littoralis (Egyptian Cotton Leaf Worm); test: Example B9: Spodoptera littoralis, cotton leaf discs (mortality, anti-feeding, growth inhibition); conditions: foliar, 72 h, read-out: control (mortality, anti-feeding effect or growth inhibition)
Method: Cotton leaf discs were placed onto agar in 24-well microtiter plates and sprayed with aqueous test solutions prepared from 10,000 ppm DMSO stock solutions. After drying the leaf discs were infested with five L1 larvae. The samples were assessed for mortality, anti-feeding effect, and growth inhibition in comparison to untreated samples 3 days after infestation. Control of Spodoptera littoralis by a test sample is given when at least one of the categories mortality, anti-feedant effect, and growth inhibition is higher than the untreated sample.

[5] = tested on: Melodoigyne incognita; test: Example B14: Melodoigyne incognita juvenile mobility, in vitro profiling in 96 well plate; conditions: read-out: control (juvenile mobility)
Method: Test solutions are prepared from 10,000 ppm DMSO stock solutions with a TECAN robot to achieve 20 μL of 1000, 200, 100, 50, 25 and 12.5 ppm. For each concentration three replicates are produced. Per well, 80 μL nematode solution is added containing 100 to 150 freshly harvested second stage juveniles of Melodoigyne incognita. The plates are covered and stored at room temperature in the dark and incubated for 24 h. Mobility of the exposed juveniles in a treated well is measured using an imaging tool and compared to an average of 12 untreated replicates.

[6] = tested on: Myzus persicae (Green peach aphid); test: Example B5: Myzus persicae feeding/contact activity, sunflower leaf discs; conditions: foliar; for mortality at 200 ppm: 144 h
Method: Sunflower leaf discs were placed onto agar in a 24-well microtiter plate and sprayed with aqueous test solutions prepared from 10,000 ppm DMSO stock solutions. After drying, the leaf discs were infested with an aphid population of mixed ages. The samples were assessed for mortality 6 days after infestation.

[7] = tested on: Myzus persicae (Green peach aphid); test: Example B6: Myzus persicae systemic activity, pea seedlings; conditions: for mortality at 24 ppm: 144 h
Method: Roots of pea seedlings infested with an aphid population of mixed ages were placed directly into aqueous test solutions prepared from 10,000 DMSO stock solutions. The samples were assessed for mortality 6 days after placing seedlings into test solutions.

[8] = Euschistus heros, application rate of 200 ppm, N2 nymphs, 5 days after infestation
[9] = application rate of 200 ppm, L1 larvae, 3 days after infestation
[10] = 200 ppm, after 24 h, second stage juveniles
[11] = Myzus persicae, application rate of 200 ppm, mixed ages, 6 days after infestation, read-out: mortality
[12] = Myzus persicae, test rate of 24 ppm, mixed ages, 6 days after placing seedlings into test solutions, read-out: mortality

SMILES	percent effect (mortality or growth inhibition) at 200 ppm [1] [%]	percent effect (mortality or growth inhibition) at 200 ppm [2, 8] [%]	percent effect (mortality or growth inhibition) at 200 ppm [3] [%]	percent control (mortality, anti-feedant effect or growth inhibition) at 200 ppm [4, 9] [%]	pest or weed control at 200 ppm [5, 10] [%]	mortality at 200 ppm [6, 11] [%]	mortality at 24 ppm [7, 12] [%]	mortality at 50 ppm ([2]; Concentration 50 ppm, Euschistus heros (Example B3), read-out: Mortality (%)) [%]	mortality at 12.5 ppm ([6]; Concentration 12.5 ppm, Myzus persicae (feeding/contact, Example B5), read-out: Mortality (%)) [%]	mortality at 1.5 ppm ([7]; Concentration 1.5 ppm, Myzus persicae (systemic, Example B6), read-out: Mortality (%)) [%]	mortality at 50 ppm ([2]; Euschistus heros) [%]	percent effect (mortality or growth inhibition) at 200 ppm ([2]; Euschistus heros) [%]	mortality at 12.5 ppm ([6]; Myzus persicae) [%]	mortality at 200 ppm ([6]; Myzus persicae) [%]	mortality at 1.5 ppm ([7]; Myzus persicae) [%]	mortality at 24 ppm ([7]; Myzus persicae) [%]	percent control (mortality or growth inhibition) at 200 ppm [3] [%]	percent control (mortality, anti-feedant effect or growth inhibition) at 200 ppm [4] [%]	pest or weed control at 200 ppm ([5]; 24 h) [%]
CCS(=O)(=O)c1cc(N(OC)C(=O)C2CC2)cnc1-c1nc2cc(C(F)(F)F)ncc2n1C [P24, N-[5-ethylsulfonyl-6-[3-methyl-6-(trifluoromethyl)imidazo[4,5-c]pyridin-2-yl]-3-pyridyl]-N-methoxy-cyclopropanecarboxamide]	≥ 80	≥ 80	≥ 80	≥ 80	≥ 80	–	–	–	–	–	–	–	–	–	–	–	–	–	–
CCS(=O)(=O)c1cc(N(C)C(=O)C(F)(F)F)cnc1-c1nc2cc(C(F)(F)F)ncc2n1C [P11, N-[5-ethylsulfonyl-6-[3-methyl-6-(trifluoromethyl)imidazo[4,5-c]pyridin-2-yl]-3-pyridyl]-2,2,2-trifluoro-N-methyl-acetamide]	≥ 80	≥ 80	≥ 80	≥ 80	≥ 80	≥ 80	≥ 80	–	–	–	–	–	–	–	–	–	–	–	–
CCS(=O)(=O)c1cc(N2CCOC2=O)cnc1-c1nc2cc(C(F)(F)F)ncc2n1C [P34, 3-[5-ethylsulfonyl-6-[3-methyl-6-(trifluoromethyl)imidazo[4,5-c]pyridin-2-yl]-3-pyridyl]oxazolidin-2-one]	–	≥ 80	≥ 80	≥ 80	≥ 80	≥ 80	≥ 80	80	100	100	–	–	–	–	–	–	–	–	–
CCS(=O)(=O)c1cc(N(C)C(=O)COC)cnc1-c1nc2cc(C(F)(F)F)ncc2n1C [P12, N-[5-ethylsulfonyl-6-[3-methyl-6-(trifluoromethyl)imidazo[4,5-c]pyridin-2-yl]-3-pyridyl]-2-methoxy-N-methyl-acetamide]	≥ 80	≥ 80	≥ 80	≥ 80	≥ 80	≥ 80	≥ 80	–	–	–	–	–	–	–	–	–	–	–	–
CCS(=O)(=O)c1cc(N2CCCC2=O)cnc1-c1nc2cc(C(F)(F)F)ncc2n1C [P5, 1-[5-ethylsulfonyl-6-[3-methyl-6-(trifluoromethyl)imidazo[4,5-c]pyridin-2-yl]-3-pyridyl]pyrrolidin-2-one]	–	–	–	–	–	–	–	–	–	–	100	≥ 80	0	≥ 80	80	≥ 80	≥ 80	≥ 80	≥ 80
CCC(=O)N(c1cnc(-c2nc3cc(C(F)(F)F)ncc3n2C)c(S(=O)(=O)CC)c1)C1CC1 [P40, N-cyclopropyl-N-[5-ethylsulfonyl-6-[3-methyl-6-(trifluoromethyl)imidazo[4,5-c]pyridin-2-yl]-3-pyridyl]propanamide]	≥ 80	≥ 80	≥ 80	≥ 80	≥ 80	≥ 80	≥ 80	–	–	–	–	–	–	–	–	–	–	–	–
CCS(=O)(=O)c1cc(N(C)C(=O)CCl)cnc1-c1nc2cc(C(F)(F)F)ncc2n1C [P22, 2-chloro-N-[5-ethylsulfonyl-6-[3-methyl-6-(trifluoromethyl)imidazo[4,5-c]pyridin-2-yl]-3-pyridyl]-N-methyl-acetamide]	–	≥ 80	–	≥ 80	≥ 80	≥ 80	≥ 80	–	–	–	–	–	–	–	–	–	–	–	–
CCS(=O)(=O)c1cc(N(C)C(=O)CS(C)(=O)=O)cnc1-c1nc2cc(C(F)(F)F)ncc2n1C [P17, N-[5-ethylsulfonyl-6-[3-methyl-6-(trifluoromethyl)imidazo[4,5-c]pyridin-2-yl]-3-pyridyl]-N-methyl-2-methylsulfonyl-acetamide]	≥ 80	≥ 80	–	≥ 80	≥ 80	≥ 80	≥ 80	–	–	–	–	–	–	–	–	–	–	–	–
CCC(=O)N(OC)c1cnc(-c2nc3cc(C(F)(F)F)ncc3n2C)c(S(=O)(=O)CC)c1 [P29, N-[5-ethylsulfonyl-6-[3-methyl-6-(trifluoromethyl)imidazo[4,5-c]pyridin-2-yl]-3-pyridyl]-N-methoxy-propanamide]	≥ 80	≥ 80	≥ 80	≥ 80	≥ 80	≥ 80	≥ 80	–	–	–	–	–	–	–	–	–	–	–	–
CCS(=O)(=O)c1cc(N(OC)C(C)=O)cnc1-c1nc2cc(C(F)(F)F)ncc2n1C [P30, N-[5-ethylsulfonyl-6-[3-methyl-6-(trifluoromethyl)imidazo[4,5-c]pyridin-2-yl]-3-pyridyl]-N-methoxy-acetamide]	≥ 80	≥ 80	≥ 80	≥ 80	≥ 80	≥ 80	≥ 80	–	–	–	–	–	–	–	–	–	–	–	–
CCS(=O)(=O)c1cc(N2CCN(OC)C2=O)cnc1-c1nc2cc(C(F)(F)F)ncc2n1C [P35, 1-[5-ethylsulfonyl-6-[3-methyl-6-(trifluoromethyl)imidazo[4,5-c]pyridin-2-yl]-3-pyridyl]-3-methoxy-imidazolidin-2-one]	–	≥ 80	–	≥ 80	–	≥ 80	≥ 80	–	–	–	–	–	–	–	–	–	–	–	–
CCS(=O)(=O)c1cc(N(C(C)=O)C2CC2)cnc1-c1nc2cc(C(F)(F)F)ncc2n1C [P10, N-cyclopropyl-N-[5-ethylsulfonyl-6-[3-methyl-6-(trifluoromethyl)imidazo[4,5-c]pyridin-2-yl]-3-pyridyl]acetamide]	≥ 80	≥ 80	≥ 80	≥ 80	≥ 80	≥ 80	≥ 80	–	–	–	–	–	–	–	–	–	–	–	–
